Assays:
[1] = tested on: LAPC-4 prostate cancer cells; test: LAPC-4 prostate cancer cell growth (CyQuant or BCA cell proliferation assay); type: cell-based, human; conditions: for block of the effect of 1 nM DHT to stimulate proliferation: much smaller effects on non-androgen mediated growth
Description: LAPC-4 prostate cancer cells were maintained at 37° C., 5% CO2 in phenol-free RPMI+10% FCS RPMI. Steroid free medium consisted of phenol-free RPMI supplemented with 10% dextran-coated, charcoal-treated serum (10% CDSS RPMI). LAPC-4 cells were incubated in this steroid-free 10% CDSS RPMI for 3 days prior to plating in 96 well plates (5×10^3 cells/well). […] The medium with androgens and inhibitors was refreshed on day 3. The plates were harvested on day 7 by inverting the microplate onto paper towels with gentle blotting to remove growth medium without disrupting adherent cells and freezing them at −80° C. for at least 30 minutes. LAPC-4 prostate cancer cell growth was determined using either the CyQuant cell proliferation assay (Molecular Probes, Eugene, Oreg.) or by the BCA assay (Pierce, Rockford, Ill.). Cell proliferation was calculated as the percent of content versus control cells at day 0.
Each value shown is the mean+SD for triplicate determinations. In FIGS. 1a and 2b, cell proliferation was measured by BCA, and in FIG. 1c by the CyQuant method. In all future studies, the CyQuant method was employed to measure proliferation.

LAPC-4 cells = test: LAPC-4 growth in soft agar (anchorage independent growth), CyQuant; type: cell-based, human; conditions: 1 nM DHT, 6 days, FIG. 3b
IGF-1 receptor = IGF-1 receptor content in LAPC-4 cells (immunoprecipitation, western blot); type: cell-based, human
Description: At the end of the incubation period, cells were washed twice with PBS and solubilized with lysis buffer (50 mM HEPES pH 7.6, 150 mM NaCl, 0.1% Triton X-100, 1 mM PMSF, 2 mM Na3VO4) for 1 hour at 4° C. […] The immunoprecipitated samples were run on SDS-PAGE, under reducing condition. Following transfer to nitrocellulose membrane, levels of IGF-1 receptor were assessed by western blot. Following an overnight incubation at 4° C., the membranes were washed 3 times with TBST and then incubated with HRP-conjugated anti-rabbit IgG diluted 1:50,000 in the same blocking buffer for 90 minutes at room temperature. After washing, blots were incubated with Super Signal (Pierce Chemicals, Rockford, Ill.), and exposed to film.

IGF-1 receptor mRNA = test: IGF-1 receptor gene expression by quantitative PCR in LAPC-4 cells; type: cell-based, human; conditions: FIG. 6a
Description: A large master mix of the above-mentioned components (minus the primers, probe and cDNA) was made for each experiment and aliquoted into individual tubes, one for each cDNA sample. cDNA was then added to the aliquoted master mix. The master mix with cDNA was aliquoted into a 384-well plate, with nine wells used for each cDNA sample. The primers and probes were mixed together and added to the master mix and cDNA in the 384-well plate. PCR was conducted on the ABI 7900HT (Applied Biosystems, CA) using the following cycle parameters: 1 cycle of 95° C. for 10 minutes, 40 cycles of 95° C. for 15 seconds, 60° C. for 1 minute. Analysis was carried out using the SDS software (version 2.3) supplied with the ABI 7900HT. The Ct values for each set of three reactions were averaged for all subsequent calculations. PCR primer and TaqMan probe sequences were either synthesized by Integrated DNA Technologies (Coralville, Iowa) or purchased from Applied Biosystems (Foster City, Calif.).

[2] = tested on: patients with both androgen-dependent and androgen-independent prostate cancer; conditions: Ryan et al. (2008), cited from earlier work
insulin receptor (IR) = conditions: FIG. 5c
Description: Level of insulin receptor was determined in 15 μg of total protein run on SDS-PAGE under reducing conditions, transferred to nitrocellulose membrane, and analyzed by probing with an anti-insulin receptor antibody CT-3, diluted 1:1000 in 1% milk, 1% BSA in TBST at 4° C. overnight. The secondary anti-mouse IgG, diluted 1:2000 in the same blocking buffer, was applied for 90 minutes at room temperature. Blots were incubated with SuperSignal, and exposed to film.

Nc1ncnc2c1c(-c1cccc(OCc3ccccc3)c1)cn2C1CC(CN2CCC2)C1 (centres unmarked) [NVP-AEW541]
block of the effect of 1 nM DHT to stimulate proliferation [1]: completely blocked

COc1cc([C@@H]2c3cc4c(cc3[C@H](O)[C@H]3COC(=O)[C@@H]23)OCO4)cc(OC)c1OC [PPP, picropodophyllin]
block of the effect of 1 nM DHT to stimulate proliferation [1]: completely blocked

C[C@H](Cc1ccc(O)c(O)c1)[C@@H](C)Cc1ccc(O)c(O)c1 [NDGA, Meso-nordihydroguaiaretic acid]
inhibition of the effect of DHT on growth in soft agar (LAPC-4 cells): inhibited anchorage independent growth | IC50 (IGF-1 receptor; read-out: effects to inhibit DHT-induced IGF-1 receptor content, 3 separate experiments, mean+SEM, FIG. 5e): 11 µM | inhibition of the effect of DHT to increase expression of IGF-1 receptor (IGF-1 receptor mRNA; NDGA at 10 μM): completely inhibit | clinical safety [2]: reasonable safety | effect on PSA ([2]; patients with non-castrate levels of testosterone and a rising PSA): modest declines in PSA | IC50 ([1]; Homo sapiens, LAPC4, 5 separate experiments, mean+SEM, read-out: half-maximal effect to inhibit androgen-stimulated growth): 5 µM

C[C@]12CCC(=O)C[C@@H]1CC[C@@H]1[C@@H]2CC[C@]2(C)[C@@H](O)CC[C@@H]12 [DHT, dihydrotestosterone]
change in content of insulin receptor (IR) (insulin receptor (IR)): no change | concentration at which a significant effect on IGF-1 receptor content was observed (IGF-1 receptor; FIG. 5b): 0.1 nM | effect on content of the IGF-1 receptor (IGF-1 receptor; western blot, FIG. 5a): markedly increased | concentration that maximally increases IGF-1 receptor gene expression (IGF-1 receptor mRNA): 0.1 nM | affect to stimulate growth above control ([1]; DHT at 10 nM, 7 days, 3 separate experiments, mean+SEM): 83+8% | concentration at which a major effect on proliferation was observed ([1]; FIG. 1b): 0.1 nM

Source: patent US20090280112A1 (The Regents of the University of California, priority 2008, published 2009)
